Measurements reported in ChEMBL document CHEMBL4507280 (2021).

Tests used:
[1] = molecular target: Ephrin type-B receptor 4 (Homo sapiens) (UniProt P54760); conditions: Compound concentration 1000.0 nM
[2] = molecular target: Sigma non-opioid intracellular receptor 1 (Homo sapiens) (UniProt Q99720); conditions: Compound concentration 10.0 uM
[3] = test system: Phosphatidylinositol 4,5-bisphosphate 3-kinase catalytic subunit alpha isoform (Homo sapiens), P42336 [C420R]; conditions: Compound concentration 1000.0 nM
[4] = molecular target: Serine/threonine-protein kinase TNNI3K (Homo sapiens) (UniProt Q59H18); conditions: Compound concentration 1000.0 nM
[5] = molecular target: MAP kinase-activated protein kinase 5 (Homo sapiens) (UniProt Q8IW41); conditions: Compound concentration 1000.0 nM
Chain of MAP kinase-activated protein kinase 5 (Homo sapiens) (Q8IW41 whole entry): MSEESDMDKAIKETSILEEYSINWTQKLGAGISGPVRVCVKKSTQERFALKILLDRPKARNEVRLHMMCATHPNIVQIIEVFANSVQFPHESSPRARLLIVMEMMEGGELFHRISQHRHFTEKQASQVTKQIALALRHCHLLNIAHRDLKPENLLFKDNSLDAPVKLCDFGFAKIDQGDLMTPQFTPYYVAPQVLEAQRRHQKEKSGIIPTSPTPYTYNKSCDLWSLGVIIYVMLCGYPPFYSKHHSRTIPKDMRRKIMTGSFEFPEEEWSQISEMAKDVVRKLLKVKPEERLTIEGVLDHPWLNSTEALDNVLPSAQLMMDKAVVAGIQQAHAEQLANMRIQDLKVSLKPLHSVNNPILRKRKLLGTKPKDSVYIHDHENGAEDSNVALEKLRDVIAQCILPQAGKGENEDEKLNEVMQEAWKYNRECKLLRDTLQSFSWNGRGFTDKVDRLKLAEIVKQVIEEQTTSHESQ

[6] = molecular target: Death-associated protein kinase 3 (Homo sapiens) (UniProt O43293); conditions: Compound concentration 1000.0 nM
[7] = molecular target: Mitogen-activated protein kinase kinase kinase 15 (Homo sapiens) (UniProt Q6ZN16); conditions: Compound concentration 1000.0 nM
[8] = molecular target: Calcium/calmodulin-dependent protein kinase type II subunit delta (Homo sapiens) (UniProt Q13557); conditions: Compound concentration 1000.0 nM
Chain of Calcium/calmodulin-dependent protein kinase type II subunit delta (Homo sapiens) (Q13557 whole entry, canonical isoform): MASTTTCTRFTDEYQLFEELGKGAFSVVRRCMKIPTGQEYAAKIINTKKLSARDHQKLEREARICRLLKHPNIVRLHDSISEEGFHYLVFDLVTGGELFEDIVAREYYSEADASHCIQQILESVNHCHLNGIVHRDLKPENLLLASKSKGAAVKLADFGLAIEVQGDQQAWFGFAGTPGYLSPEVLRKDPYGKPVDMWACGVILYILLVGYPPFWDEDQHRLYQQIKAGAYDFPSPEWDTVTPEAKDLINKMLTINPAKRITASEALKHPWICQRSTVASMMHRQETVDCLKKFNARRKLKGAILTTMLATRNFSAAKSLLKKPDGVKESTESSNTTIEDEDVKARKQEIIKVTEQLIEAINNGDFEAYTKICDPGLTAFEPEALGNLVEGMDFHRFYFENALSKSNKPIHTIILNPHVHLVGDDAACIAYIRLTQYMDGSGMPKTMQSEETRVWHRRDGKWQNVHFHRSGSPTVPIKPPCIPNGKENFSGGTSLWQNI

[9] = test system: Phosphatidylinositol 4,5-bisphosphate 3-kinase catalytic subunit alpha isoform (Homo sapiens), P42336 [H1047L]; conditions: Compound concentration 1000.0 nM
[10] = molecular target: D(2) dopamine receptor (Homo sapiens) (UniProt P14416); conditions: Compound concentration 10.0 uM
[11] = molecular target: Bone morphogenetic protein receptor type-2 (Homo sapiens) (UniProt Q13873); conditions: Compound concentration 1000.0 nM
[12] = molecular target: Phosphatidylinositol 4,5-bisphosphate 3-kinase catalytic subunit beta isoform (Homo sapiens) (UniProt P42338); conditions: Compound concentration 1000.0 nM
[13] = molecular target: Phosphorylase b kinase gamma catalytic chain, skeletal muscle/heart isoform (Homo sapiens) (UniProt Q16816); conditions: Compound concentration 1000.0 nM
[14] = molecular target: Dual specificity mitogen-activated protein kinase kinase 4 (Homo sapiens) (UniProt P45985); conditions: Compound concentration 1000.0 nM
Chain of Dual specificity mitogen-activated protein kinase kinase 4 (Homo sapiens) (P45985 whole entry): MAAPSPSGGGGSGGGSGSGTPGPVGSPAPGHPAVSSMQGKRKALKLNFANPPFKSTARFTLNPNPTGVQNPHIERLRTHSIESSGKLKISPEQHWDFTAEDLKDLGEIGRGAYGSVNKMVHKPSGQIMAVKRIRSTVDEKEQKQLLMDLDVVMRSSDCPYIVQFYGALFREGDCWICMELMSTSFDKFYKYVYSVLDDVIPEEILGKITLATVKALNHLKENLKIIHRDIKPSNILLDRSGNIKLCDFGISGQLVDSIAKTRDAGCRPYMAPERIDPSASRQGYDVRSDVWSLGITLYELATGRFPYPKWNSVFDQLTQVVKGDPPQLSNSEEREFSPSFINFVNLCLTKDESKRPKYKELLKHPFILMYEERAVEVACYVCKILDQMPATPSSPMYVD

[15] = molecular target: 5-hydroxytryptamine receptor 1A (Homo sapiens) (UniProt P08908); conditions: Compound concentration 10.0 uM
[16] = molecular target: Receptor tyrosine-protein kinase erbB-2 (Homo sapiens) (UniProt P04626); conditions: Compound concentration 1000.0 nM
[17] = test system: Fibroblast growth factor receptor 3 (Homo sapiens), P22607 [G697C]; conditions: Compound concentration 1000.0 nM
[18] = test system: Serine/threonine-protein kinase B-raf (Homo sapiens), P15056 [V600E]; conditions: Compound concentration 1000.0 nM
[19] = molecular target: ALK tyrosine kinase receptor (Homo sapiens) (UniProt Q9UM73); conditions: Compound concentration 1000.0 nM
[20] = molecular target: Atypical kinase COQ8A, mitochondrial (Homo sapiens) (UniProt Q8NI60); conditions: Compound concentration 1000.0 nM
Chain of Atypical kinase COQ8A, mitochondrial (Homo sapiens) (Q8NI60 163-647 limits assumed): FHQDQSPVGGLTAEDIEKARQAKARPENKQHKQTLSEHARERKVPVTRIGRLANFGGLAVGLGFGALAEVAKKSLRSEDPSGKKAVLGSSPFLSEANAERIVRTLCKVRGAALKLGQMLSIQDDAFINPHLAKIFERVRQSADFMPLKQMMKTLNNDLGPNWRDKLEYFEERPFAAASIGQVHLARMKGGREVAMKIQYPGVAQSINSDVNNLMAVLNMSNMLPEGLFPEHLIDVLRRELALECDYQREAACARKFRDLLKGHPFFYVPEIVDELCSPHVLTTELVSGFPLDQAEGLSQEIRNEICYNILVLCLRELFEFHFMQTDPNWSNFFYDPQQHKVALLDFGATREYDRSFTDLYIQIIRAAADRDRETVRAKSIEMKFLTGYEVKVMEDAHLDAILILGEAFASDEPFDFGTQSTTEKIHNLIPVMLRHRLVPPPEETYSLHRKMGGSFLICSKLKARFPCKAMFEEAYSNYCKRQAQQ

[21] = molecular target: Serine/threonine-protein kinase Chk1 (Homo sapiens) (UniProt O14757); conditions: Compound concentration 1000.0 nM
[22] = molecular target: Phosphatidylinositol 3-kinase catalytic subunit type 3 (Homo sapiens) (UniProt Q8NEB9); conditions: Compound concentration 1000.0 nM
[23] = molecular target: Mitogen-activated protein kinase 3 (Homo sapiens) (UniProt P27361); conditions: Compound concentration 1000.0 nM
Chain of Mitogen-activated protein kinase 3 (Homo sapiens) (P27361 whole entry): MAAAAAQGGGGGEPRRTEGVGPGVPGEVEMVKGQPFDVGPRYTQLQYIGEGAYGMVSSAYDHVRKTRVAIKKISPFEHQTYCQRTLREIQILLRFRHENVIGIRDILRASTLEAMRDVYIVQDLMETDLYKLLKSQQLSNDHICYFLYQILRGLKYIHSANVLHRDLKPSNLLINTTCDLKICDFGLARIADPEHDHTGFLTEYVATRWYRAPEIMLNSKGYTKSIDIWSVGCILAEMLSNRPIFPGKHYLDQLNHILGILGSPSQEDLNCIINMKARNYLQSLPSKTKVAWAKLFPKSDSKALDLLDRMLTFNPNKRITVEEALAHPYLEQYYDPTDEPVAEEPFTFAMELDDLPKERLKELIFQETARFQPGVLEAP

[24] = molecular target: Ephrin type-B receptor 6 (Homo sapiens) (UniProt O15197); conditions: Compound concentration 1000.0 nM
[25] = molecular target: Cyclin-dependent kinase 2 homolog (Plasmodium falciparum (isolate 3D7)) (UniProt P61075); conditions: Compound concentration 1000.0 nM
[26] = molecular target: Mitotic checkpoint serine/threonine-protein kinase BUB1 (Homo sapiens) (UniProt O43683); conditions: Compound concentration 1000.0 nM
[27] = molecular target: Cyclin-dependent kinase 14 (Homo sapiens) (UniProt O94921); conditions: Compound concentration 1000.0 nM
[28] = molecular target: Cyclin-dependent kinase 16 (Homo sapiens) (UniProt Q00536); conditions: Compound concentration 1000.0 nM
Chain of Cyclin-dependent kinase 16 (Homo sapiens) (Q00536 whole entry): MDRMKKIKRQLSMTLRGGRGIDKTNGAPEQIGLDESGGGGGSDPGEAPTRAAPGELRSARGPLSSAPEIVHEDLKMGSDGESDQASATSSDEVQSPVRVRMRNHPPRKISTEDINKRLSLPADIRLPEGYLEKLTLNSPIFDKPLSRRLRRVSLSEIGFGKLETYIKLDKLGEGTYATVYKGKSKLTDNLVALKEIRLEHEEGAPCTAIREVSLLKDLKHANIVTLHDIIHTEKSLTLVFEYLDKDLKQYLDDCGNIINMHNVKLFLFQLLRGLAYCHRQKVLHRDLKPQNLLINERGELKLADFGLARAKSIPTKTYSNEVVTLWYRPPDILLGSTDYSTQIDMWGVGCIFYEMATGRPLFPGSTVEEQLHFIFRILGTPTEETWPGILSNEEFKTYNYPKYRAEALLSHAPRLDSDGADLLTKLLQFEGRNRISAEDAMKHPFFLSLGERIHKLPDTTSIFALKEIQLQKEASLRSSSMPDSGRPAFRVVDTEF

[29] = molecular target: Mitogen-activated protein kinase kinase kinase 19 (Homo sapiens) (UniProt Q56UN5); conditions: Compound concentration 1000.0 nM
[30] = molecular target: Dual specificity protein kinase CLK4 (Homo sapiens) (UniProt Q9HAZ1); conditions: Compound concentration 1000.0 nM
Chain of Dual specificity protein kinase CLK4 (Homo sapiens) (Q9HAZ1 whole entry, looked up): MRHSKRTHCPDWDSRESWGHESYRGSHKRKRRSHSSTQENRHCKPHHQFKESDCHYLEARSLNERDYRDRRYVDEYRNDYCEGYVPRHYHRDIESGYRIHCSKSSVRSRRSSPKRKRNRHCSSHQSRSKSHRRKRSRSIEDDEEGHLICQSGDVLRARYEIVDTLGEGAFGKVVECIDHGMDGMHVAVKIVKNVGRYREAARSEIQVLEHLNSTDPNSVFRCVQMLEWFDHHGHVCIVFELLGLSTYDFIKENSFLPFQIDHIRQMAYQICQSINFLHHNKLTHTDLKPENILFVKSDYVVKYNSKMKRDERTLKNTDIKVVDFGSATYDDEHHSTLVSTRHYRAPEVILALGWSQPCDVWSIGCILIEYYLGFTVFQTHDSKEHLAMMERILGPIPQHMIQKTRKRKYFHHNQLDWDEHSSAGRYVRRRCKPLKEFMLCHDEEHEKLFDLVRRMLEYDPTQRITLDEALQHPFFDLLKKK

[31] = molecular target: Calcium/calmodulin-dependent protein kinase kinase 2 (Homo sapiens) (UniProt Q96RR4); conditions: Compound concentration 1000.0 nM
[32] = molecular target: Serine/threonine-protein kinase SIK3 (Homo sapiens) (UniProt Q9Y2K2); conditions: Compound concentration 1000.0 nM
[33] = molecular target: Mitogen-activated protein kinase kinase kinase 2 (Homo sapiens) (UniProt Q9Y2U5); conditions: Compound concentration 1000.0 nM
[34] = molecular target: TGF-beta receptor type-1 (Homo sapiens) (UniProt P36897); conditions: Compound concentration 1000.0 nM
[35] = molecular target: Serine/threonine-protein kinase 38-like (Homo sapiens) (UniProt Q9Y2H1); conditions: Compound concentration 1000.0 nM
[36] = molecular target: Receptor-interacting serine/threonine-protein kinase 1 (Homo sapiens) (UniProt Q13546); conditions: Compound concentration 1000.0 nM
[37] = molecular target: Non-receptor tyrosine-protein kinase TYK2 (Homo sapiens) (UniProt P29597); conditions: Compound concentration 1000.0 nM
Chain of Non-receptor tyrosine-protein kinase TYK2 (Homo sapiens) (P29597 whole entry): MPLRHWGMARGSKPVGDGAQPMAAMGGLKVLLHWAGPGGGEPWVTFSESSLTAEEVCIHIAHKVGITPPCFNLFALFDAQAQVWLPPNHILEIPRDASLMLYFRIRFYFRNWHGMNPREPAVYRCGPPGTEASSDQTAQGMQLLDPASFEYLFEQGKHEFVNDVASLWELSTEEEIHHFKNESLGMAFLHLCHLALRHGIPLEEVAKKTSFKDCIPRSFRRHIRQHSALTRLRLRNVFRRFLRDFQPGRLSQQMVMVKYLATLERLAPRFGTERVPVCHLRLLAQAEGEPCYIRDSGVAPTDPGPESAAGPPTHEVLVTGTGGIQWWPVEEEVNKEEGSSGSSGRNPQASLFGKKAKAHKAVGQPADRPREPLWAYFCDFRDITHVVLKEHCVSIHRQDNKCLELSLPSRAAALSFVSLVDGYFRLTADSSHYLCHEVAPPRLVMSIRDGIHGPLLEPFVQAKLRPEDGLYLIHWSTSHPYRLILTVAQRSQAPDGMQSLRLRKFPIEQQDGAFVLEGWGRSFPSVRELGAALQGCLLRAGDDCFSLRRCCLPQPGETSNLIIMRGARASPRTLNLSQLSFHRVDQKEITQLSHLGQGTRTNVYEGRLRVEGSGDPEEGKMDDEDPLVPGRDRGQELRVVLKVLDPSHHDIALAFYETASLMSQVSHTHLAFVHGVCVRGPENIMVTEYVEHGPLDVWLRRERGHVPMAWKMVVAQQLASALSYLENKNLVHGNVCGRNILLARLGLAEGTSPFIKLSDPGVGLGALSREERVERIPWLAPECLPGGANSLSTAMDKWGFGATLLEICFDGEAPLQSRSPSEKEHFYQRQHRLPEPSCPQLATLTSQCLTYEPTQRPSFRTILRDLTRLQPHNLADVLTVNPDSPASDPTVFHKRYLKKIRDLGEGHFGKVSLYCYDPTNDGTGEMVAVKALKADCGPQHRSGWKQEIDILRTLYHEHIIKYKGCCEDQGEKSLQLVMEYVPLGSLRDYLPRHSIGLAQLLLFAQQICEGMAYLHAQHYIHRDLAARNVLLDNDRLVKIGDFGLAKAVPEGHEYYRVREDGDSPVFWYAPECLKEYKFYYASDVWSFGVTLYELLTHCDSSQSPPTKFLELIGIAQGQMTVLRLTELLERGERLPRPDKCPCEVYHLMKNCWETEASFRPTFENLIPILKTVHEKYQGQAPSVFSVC

[38] = molecular target: Mitogen-activated protein kinase kinase kinase 11 (Homo sapiens) (UniProt Q16584); conditions: Compound concentration 1000.0 nM
[39] = molecular target: Serine/threonine-protein kinase MAK (Homo sapiens) (UniProt P20794); conditions: Compound concentration 1000.0 nM
Chain of Serine/threonine-protein kinase MAK (Homo sapiens) (P20794 whole entry): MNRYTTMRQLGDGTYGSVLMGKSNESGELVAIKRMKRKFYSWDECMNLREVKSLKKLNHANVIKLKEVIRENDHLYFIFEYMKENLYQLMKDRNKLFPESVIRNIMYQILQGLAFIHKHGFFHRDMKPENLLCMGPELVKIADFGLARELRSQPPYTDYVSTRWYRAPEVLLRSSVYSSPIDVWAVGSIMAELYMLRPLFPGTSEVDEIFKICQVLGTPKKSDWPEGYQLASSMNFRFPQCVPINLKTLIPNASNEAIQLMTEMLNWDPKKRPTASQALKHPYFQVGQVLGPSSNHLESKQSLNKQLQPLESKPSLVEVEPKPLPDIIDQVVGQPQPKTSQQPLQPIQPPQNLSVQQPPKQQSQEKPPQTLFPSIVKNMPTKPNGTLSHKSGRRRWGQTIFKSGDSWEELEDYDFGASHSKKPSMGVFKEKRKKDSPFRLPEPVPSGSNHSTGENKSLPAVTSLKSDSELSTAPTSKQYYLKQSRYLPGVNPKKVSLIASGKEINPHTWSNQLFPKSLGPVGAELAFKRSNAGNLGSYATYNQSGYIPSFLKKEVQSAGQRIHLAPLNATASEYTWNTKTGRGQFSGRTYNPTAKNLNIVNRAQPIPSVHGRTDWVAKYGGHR

[40] = molecular target: Proto-oncogene tyrosine-protein kinase ROS (Homo sapiens) (UniProt P08922); conditions: Compound concentration 1000.0 nM
[41] = molecular target: SRSF protein kinase 2 (Homo sapiens) (UniProt P78362); conditions: Compound concentration 1000.0 nM
[42] = molecular target: Serine/threonine-protein kinase SIK1 (Homo sapiens) (UniProt P57059); conditions: Compound concentration 1000.0 nM
[43] = molecular target: Tyrosine-protein kinase JAK2 (Homo sapiens) (UniProt O60674); conditions: Compound concentration 1000.0 nM
[44] = molecular target: Mitogen-activated protein kinase kinase kinase kinase 3 (Homo sapiens) (UniProt Q8IVH8); conditions: Compound concentration 1000.0 nM

CCC(=O)N[C@H]1CC[C@@H](C(=O)N(C)c2ccc(-c3nc4ccccc4o3)cc2)C1 [BI 99179]
inactive: residual activity [1] 73% | inhibition [2] 9.78% | residual activity [3] 92% | residual activity [4] 100% | residual activity [5] 73% | residual activity [6] 95% | residual activity [7] 100% | residual activity [8] 91% | residual activity [9] 78% | inhibition [10] 14.3% | residual activity [11] 98% | residual activity [12] 100% | residual activity [13] 100% | residual activity [14] 95% | inhibition [15] 19.5% | residual activity [16] 100% | residual activity [17] 100% | residual activity [18] 96% | residual activity [19] 86% | residual activity [20] 100% | residual activity [21] 100% | residual activity [22] 89% | residual activity [23] 100% | residual activity [24] 100% | residual activity [25] 80% | residual activity [26] 74% | residual activity [27] 92% | residual activity [28] 88% | residual activity [29] 69% | residual activity [30] 94% | residual activity [31] 91% | residual activity [32] 84% | residual activity [33] 87% | residual activity [34] 100% | residual activity [35] 79% | residual activity [36] 100% | residual activity [37] 83% | residual activity [38] 93% | residual activity [39] 85% | residual activity [40] 93% | residual activity [41] 61% | residual activity [42] 89% | residual activity [43] 70% | residual activity [44] 85%

CCC(=O)N[C@@H]1CC[C@H](C(=O)N(C)c2ccc(-c3nc4ccccc4o3)cc2)C1 [BI 99990]
inactive: residual activity [1] 100% | inhibition [2] 38.3% | residual activity [3] 70% | residual activity [4] 99% | residual activity [5] 100% | residual activity [6] 100% | residual activity [7] 100% | residual activity [8] 100% | residual activity [9] 97% | inhibition [10] 18.6% | residual activity [11] 100% | residual activity [12] 100% | residual activity [13] 100% | residual activity [14] 100% | inhibition [15] 8.28% | residual activity [16] 100% | residual activity [17] 88% | residual activity [18] 100% | residual activity [19] 99% | residual activity [20] 99% | residual activity [21] 100% | residual activity [22] 100% | residual activity [23] 100% | residual activity [24] 100% | residual activity [25] 100% | residual activity [26] 89% | residual activity [27] 100% | residual activity [28] 100% | residual activity [29] 92% | residual activity [30] 88% | residual activity [31] 100% | residual activity [32] 100% | residual activity [33] 100% | residual activity [34] 95% | residual activity [35] 100% | residual activity [36] 100% | residual activity [37] 100% | residual activity [38] 100% | residual activity [39] 100% | residual activity [40] 100% | residual activity [41] 100% | residual activity [42] 95% | residual activity [43] 100% | residual activity [44] 100%
